Assay results reported in ChEMBL document CHEMBL5705896 (ACS Chem Biol, 2013).
The source made the active and inactive calls. The rule behind the calls is not given here.

Key:
[1] = biological target: Interleukin-1 receptor-associated kinase 4 (Homo sapiens) (UniProt Q9NWZ3); assay: Inhibition of full length human N-terminal GST tagged IRAK4 (1 to 460 end residues) expressed in baculovirus expression system using IRAK1 as substrate at 10 uM by mobility shift assay relative to control
[2] = biological target: Histone-lysine N-methyltransferase SETD7 (Homo sapiens, UniProt Q8WTS6); assay: Inhibition of SETD7 (unknown origin) using [3H-SAM] as substrate incubated for 1 hr by scintillation proximity assay
[3] = biological target: Muscarinic acetylcholine receptor M4 (Homo sapiens) (UniProt P08173); assay: Inhibition of M4 receptor (unknown origin) at 10 uM by radioligand binding assay relative to control
[4] = biological target: D(4) dopamine receptor (Homo sapiens) (UniProt P21917); assay: Inhibition of dopamine D4 receptor (unknown origin) at 10 uM by radioligand binding assay relative to control
[5] = biological target: Aurora kinase A (Homo sapiens) (UniProt O14965); assay: Inhibition of full length human N-terminal GST tagged AurA (1 to 403 end residues) expressed in baculovirus expression system using kemptide as substrate at 10 uM by mobility shift assay relative to control
[6] = biological target: Ephrin type-B receptor 4 (Homo sapiens) (UniProt P54760); assay: Inhibition of human cytoplasmic domain N-terminal GST tagged EPHB4 (577 to 987 end residues) expressed in baculovirus expression system using Blk/lyntide as substrate at 10 uM by mobility shift assay relative to control
[7] = biological target: Alpha-1D adrenergic receptor (Homo sapiens) (UniProt P25100); assay: Inhibition of Alpha1D receptor (unknown origin) at 10 uM by radioligand binding assay relative to control
MCF7 = assay: Effect on EZH2 level in human MCF7 cells at 5 uM incubated for 3 days by immunofluorescence staining based analysis; format: functional, cell-based; conditions: time 3.0 day
[8] = biological target: Epidermal growth factor receptor (Homo sapiens) (UniProt P00533); assay: Inhibition of human cytoplasmic domain N-terminal GST tagged EGFR (669 to 1210 end residues) expressed in baculovirus expression system using Srctide as substrate at 10 uM by mobility shift assay relative to control
Sequence of Epidermal growth factor receptor (Homo sapiens) (P00533 whole entry, the tested form may be a part, canonical isoform): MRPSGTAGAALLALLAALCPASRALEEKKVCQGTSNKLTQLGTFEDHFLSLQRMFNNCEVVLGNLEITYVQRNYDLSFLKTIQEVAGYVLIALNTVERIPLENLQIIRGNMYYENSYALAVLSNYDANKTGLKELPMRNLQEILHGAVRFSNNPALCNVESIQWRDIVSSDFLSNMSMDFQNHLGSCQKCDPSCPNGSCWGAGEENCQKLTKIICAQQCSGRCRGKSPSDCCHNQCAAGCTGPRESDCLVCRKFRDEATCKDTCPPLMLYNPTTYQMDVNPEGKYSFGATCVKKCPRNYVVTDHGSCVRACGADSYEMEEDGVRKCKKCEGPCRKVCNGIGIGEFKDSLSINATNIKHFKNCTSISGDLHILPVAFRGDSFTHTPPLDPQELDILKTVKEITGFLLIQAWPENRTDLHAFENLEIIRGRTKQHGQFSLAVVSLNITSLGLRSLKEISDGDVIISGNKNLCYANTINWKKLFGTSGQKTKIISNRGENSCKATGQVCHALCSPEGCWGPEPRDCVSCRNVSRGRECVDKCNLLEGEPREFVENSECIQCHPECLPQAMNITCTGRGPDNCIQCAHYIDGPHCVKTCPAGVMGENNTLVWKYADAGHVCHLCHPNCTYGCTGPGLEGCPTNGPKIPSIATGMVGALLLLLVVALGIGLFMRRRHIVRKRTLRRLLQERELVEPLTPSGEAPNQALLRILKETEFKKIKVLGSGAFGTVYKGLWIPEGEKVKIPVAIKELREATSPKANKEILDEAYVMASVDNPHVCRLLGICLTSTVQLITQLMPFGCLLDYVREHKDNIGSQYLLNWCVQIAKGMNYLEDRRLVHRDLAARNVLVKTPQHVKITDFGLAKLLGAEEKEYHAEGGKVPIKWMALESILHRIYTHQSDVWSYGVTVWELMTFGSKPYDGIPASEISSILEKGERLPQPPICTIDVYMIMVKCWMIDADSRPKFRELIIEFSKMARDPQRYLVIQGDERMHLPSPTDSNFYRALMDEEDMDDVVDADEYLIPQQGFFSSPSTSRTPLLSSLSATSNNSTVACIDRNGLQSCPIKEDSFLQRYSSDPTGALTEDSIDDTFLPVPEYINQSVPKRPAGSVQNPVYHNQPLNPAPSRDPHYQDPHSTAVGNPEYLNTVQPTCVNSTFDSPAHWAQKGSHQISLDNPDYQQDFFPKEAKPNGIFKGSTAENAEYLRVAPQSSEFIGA

[9] = biological target: Casein kinase I isoform epsilon (Homo sapiens) (UniProt P49674); assay: Inhibition of human catalytic domain N-terminal GST tagged CK1epsilon (1 to 348 residues) expressed in baculovirus expression system using ck-tide as substrate at 10 uM by mobility shift assay relative to control
[10] = biological target: T1, Sigma intracellular receptor 2 (Homo sapiens, UniProt Q5BJF2); assay: Inhibition of Sigma2 receptor (unknown origin) at 10 uM by radioligand binding assay relative to control
T1 sequence (Q5BJF2 whole entry): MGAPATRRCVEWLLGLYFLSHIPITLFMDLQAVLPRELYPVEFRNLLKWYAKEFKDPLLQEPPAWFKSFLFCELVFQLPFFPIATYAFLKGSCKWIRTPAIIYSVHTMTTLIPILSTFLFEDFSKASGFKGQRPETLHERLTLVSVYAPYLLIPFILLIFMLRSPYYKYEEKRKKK

[11] = biological target: 5-hydroxytryptamine receptor 2A (Homo sapiens) (UniProt P28223); assay: Inhibition of 5-HT2A receptor (unknown origin) at 10 uM by radioligand binding assay relative to control
Sequence of 5-hydroxytryptamine receptor 2A (Homo sapiens) (P28223 whole entry): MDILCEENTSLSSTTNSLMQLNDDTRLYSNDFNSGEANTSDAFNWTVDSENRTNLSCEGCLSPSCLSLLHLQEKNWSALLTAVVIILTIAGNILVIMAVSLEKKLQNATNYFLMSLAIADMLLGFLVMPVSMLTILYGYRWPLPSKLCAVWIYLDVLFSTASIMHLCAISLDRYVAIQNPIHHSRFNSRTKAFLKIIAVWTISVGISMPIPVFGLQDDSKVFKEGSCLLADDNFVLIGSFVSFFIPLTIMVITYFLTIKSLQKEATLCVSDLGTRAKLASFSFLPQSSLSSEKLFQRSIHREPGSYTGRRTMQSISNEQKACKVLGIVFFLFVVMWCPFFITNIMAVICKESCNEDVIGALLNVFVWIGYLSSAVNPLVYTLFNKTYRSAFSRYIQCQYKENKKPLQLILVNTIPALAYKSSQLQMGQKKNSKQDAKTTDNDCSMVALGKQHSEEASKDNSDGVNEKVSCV

[12] = biological target: Tyrosine-protein kinase Lck (Homo sapiens) (UniProt P06239); assay: Inhibition of full length human N-terminal GST tagged LCK (1 to 509 end residues) expressed in baculovirus expression system using Srctide as substrate at 10 uM by mobility shift assay relative to control
[13] = biological target: D(3) dopamine receptor (Homo sapiens) (UniProt P35462); assay: Inhibition of dopamine D3 receptor (unknown origin) at 10 uM by radioligand binding assay relative to control
[14] = biological target: Histone-lysine N-methyltransferase SUV39H2 (Homo sapiens, UniProt Q9H5I1); assay: Inhibition of SUV39H2 (unknown origin) using [3H-SAM] as substrate incubated for 1 hr by scintillation proximity assay
[15] = biological target: Inhibitor of nuclear factor kappa-B kinase subunit beta (Homo sapiens) (UniProt O14920); assay: Inhibition of truncated human N-terminal his-tagged IKK beta (1 to 662 residues) expressed in baculovirus expression system using modified IkappaB-alpha derived peptide as substrate at 10 uM by mobility shift assay relative to control
Sequence of Inhibitor of nuclear factor kappa-B kinase subunit beta (Homo sapiens) (O14920 whole entry, the tested form may be a part): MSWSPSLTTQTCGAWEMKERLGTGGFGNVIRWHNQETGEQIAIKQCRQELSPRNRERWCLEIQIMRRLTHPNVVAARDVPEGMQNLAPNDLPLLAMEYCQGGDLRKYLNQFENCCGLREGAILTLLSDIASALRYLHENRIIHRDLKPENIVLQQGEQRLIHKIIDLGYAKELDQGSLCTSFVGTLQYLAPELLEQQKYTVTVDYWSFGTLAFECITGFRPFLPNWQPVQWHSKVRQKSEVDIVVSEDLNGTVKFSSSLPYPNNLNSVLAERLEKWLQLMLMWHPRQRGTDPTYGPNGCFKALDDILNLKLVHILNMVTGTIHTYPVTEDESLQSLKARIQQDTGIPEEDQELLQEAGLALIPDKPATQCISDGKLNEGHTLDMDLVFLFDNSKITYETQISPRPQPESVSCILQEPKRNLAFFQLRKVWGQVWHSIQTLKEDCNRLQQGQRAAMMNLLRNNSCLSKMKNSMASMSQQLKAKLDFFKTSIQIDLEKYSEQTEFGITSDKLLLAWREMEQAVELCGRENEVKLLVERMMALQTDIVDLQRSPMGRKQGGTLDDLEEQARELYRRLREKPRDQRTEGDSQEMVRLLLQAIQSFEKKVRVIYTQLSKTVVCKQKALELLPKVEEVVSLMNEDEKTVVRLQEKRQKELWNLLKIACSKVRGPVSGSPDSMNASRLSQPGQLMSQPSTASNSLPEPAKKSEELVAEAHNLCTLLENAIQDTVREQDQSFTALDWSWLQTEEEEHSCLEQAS

[16] = biological target: Tyrosine-protein kinase receptor TYRO3 (Homo sapiens) (UniProt Q06418); assay: Inhibition of human cytoplasmic domain N-terminal GST tagged TYRO3 (453 to 890 end residues) expressed in baculovirus expression system using CSKtide as substrate at 10 uM by mobility shift assay relative to control
Sequence of Tyrosine-protein kinase receptor TYRO3 (Homo sapiens) (Q06418 whole entry, the tested form may be a part): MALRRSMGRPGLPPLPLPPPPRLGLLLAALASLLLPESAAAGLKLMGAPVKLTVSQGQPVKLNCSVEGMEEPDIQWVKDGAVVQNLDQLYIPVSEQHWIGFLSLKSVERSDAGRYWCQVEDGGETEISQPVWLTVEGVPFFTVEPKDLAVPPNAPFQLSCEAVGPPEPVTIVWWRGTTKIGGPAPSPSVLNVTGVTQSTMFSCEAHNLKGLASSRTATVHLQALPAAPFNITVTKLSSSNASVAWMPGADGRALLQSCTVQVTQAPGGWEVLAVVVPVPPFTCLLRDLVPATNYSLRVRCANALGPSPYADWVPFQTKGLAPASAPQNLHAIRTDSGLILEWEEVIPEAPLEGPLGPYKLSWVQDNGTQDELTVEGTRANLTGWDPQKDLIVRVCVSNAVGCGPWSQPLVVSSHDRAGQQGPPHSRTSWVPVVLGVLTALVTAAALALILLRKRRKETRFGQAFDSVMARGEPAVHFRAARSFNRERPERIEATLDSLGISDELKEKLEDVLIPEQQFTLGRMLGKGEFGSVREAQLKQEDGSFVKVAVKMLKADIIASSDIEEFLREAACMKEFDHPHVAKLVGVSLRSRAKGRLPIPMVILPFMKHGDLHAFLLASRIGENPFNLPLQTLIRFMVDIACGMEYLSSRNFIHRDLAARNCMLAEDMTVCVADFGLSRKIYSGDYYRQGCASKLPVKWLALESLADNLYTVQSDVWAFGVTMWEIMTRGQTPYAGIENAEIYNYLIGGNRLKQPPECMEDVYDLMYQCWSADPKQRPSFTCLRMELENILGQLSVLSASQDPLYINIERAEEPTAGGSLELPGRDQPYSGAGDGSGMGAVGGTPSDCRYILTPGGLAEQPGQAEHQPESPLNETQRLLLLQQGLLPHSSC

[17] = biological target: Histone-lysine N-methyltransferase KMT5B (Homo sapiens, UniProt Q4FZB7); assay: Inhibition of SUV420H1 (unknown origin) using [3H-SAM] as substrate incubated for 1 hr by scintillation proximity assay
[18] = biological target: T2, Histone-lysine N-methyltransferase EZH2 (Homo sapiens, UniProt Q15910); assay: Inhibition of EZH2 methyltransferase activity (unknown origin) in PRC2 complex using 3H-SAM as substrate by Scintillation proximity assay
T2 sequence (Q15910 whole entry): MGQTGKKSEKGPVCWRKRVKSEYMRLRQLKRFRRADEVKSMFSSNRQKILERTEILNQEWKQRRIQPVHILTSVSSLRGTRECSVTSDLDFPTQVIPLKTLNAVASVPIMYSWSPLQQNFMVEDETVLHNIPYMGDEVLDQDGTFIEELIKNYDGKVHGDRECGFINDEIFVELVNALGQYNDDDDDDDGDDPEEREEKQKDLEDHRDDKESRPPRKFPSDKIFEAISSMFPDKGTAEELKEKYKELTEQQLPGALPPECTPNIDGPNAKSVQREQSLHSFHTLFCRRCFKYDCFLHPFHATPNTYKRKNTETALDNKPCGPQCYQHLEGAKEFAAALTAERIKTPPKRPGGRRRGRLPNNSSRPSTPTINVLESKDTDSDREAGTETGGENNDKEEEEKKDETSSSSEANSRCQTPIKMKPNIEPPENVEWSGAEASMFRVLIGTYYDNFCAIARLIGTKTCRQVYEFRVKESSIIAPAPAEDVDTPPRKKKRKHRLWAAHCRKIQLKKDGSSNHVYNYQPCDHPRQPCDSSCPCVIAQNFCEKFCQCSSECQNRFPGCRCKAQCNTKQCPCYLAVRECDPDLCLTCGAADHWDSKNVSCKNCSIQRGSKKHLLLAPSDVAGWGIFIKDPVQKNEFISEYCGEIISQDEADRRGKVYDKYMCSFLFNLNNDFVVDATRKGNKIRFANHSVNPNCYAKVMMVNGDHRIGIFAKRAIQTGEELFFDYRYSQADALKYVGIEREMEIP

[19] = biological target: 5-hydroxytryptamine receptor 1B (Homo sapiens) (UniProt P28222); assay: Inhibition of 5-HT1B receptor (unknown origin) at 10 uM by radioligand binding assay relative to control
[20] = biological target: Rho-associated protein kinase 1 (Homo sapiens) (UniProt Q13464); assay: Inhibition of human catalytic domain N-terminal GST tagged ROCK1 (1 to 477 residues) expressed in baculovirus expression system using LIMKtide as substrate at 10 uM by mobility shift assay relative to control
[21] = biological target: 5-hydroxytryptamine receptor 1E (Homo sapiens) (UniProt P28566); assay: Inhibition of 5-HT1E receptor (unknown origin) at 10 uM by radioligand binding assay relative to control
[22] = biological target: T2, Histone-lysine N-methyltransferase EZH2
Description: Inhibition of human EZH2 in human MCF-10A cells assessed as reduction in H3K27me3 levels incubated for 72 hrs by In-cell western assay

[23] = biological target: Tyrosine-protein kinase ITK/TSK (Homo sapiens) (UniProt Q08881); assay: Inhibition of human cytoplasmic domain N-terminal GST tagged ITK (2 to 620 end residues) expressed in baculovirus expression system using Srctide as substrate at 10 uM by mobility shift assay relative to control
[24] = biological target: Histone-lysine N-methyltransferase 2A (Homo sapiens, UniProt Q03164); assay: Inhibition of MLL1 (unknown origin) using [3H-SAM] as substrate incubated for 1 hr by scintillation proximity assay
[25] = biological target: T1, Sigma intracellular receptor 2; assay: Binding affinity to sigma 2 receptor (unknown origin) assessed as inhibition constant
[26] = biological target: 5-hydroxytryptamine receptor 1D (Homo sapiens) (UniProt P28221); assay: Inhibition of 5-HT1D receptor (unknown origin) at 10 uM by radioligand binding assay relative to control
Sequence of 5-hydroxytryptamine receptor 1D (Homo sapiens) (P28221 whole entry): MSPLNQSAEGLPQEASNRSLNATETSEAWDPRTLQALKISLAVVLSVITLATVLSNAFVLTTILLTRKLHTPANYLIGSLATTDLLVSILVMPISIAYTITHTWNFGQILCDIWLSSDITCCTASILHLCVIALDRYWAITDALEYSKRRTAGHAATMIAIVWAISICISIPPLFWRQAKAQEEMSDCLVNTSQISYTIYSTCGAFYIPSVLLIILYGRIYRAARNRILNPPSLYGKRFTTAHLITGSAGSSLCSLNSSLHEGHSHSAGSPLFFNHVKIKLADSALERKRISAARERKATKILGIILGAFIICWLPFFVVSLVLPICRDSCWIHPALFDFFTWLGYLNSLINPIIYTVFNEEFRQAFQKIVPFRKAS

[27] = biological target: Sigma non-opioid intracellular receptor 1 (Homo sapiens) (UniProt Q99720); assay: Inhibition of Sigma1 receptor (unknown origin) at 10 uM by radioligand binding assay relative to control
Sequence of Sigma non-opioid intracellular receptor 1 (Homo sapiens) (Q99720 whole entry): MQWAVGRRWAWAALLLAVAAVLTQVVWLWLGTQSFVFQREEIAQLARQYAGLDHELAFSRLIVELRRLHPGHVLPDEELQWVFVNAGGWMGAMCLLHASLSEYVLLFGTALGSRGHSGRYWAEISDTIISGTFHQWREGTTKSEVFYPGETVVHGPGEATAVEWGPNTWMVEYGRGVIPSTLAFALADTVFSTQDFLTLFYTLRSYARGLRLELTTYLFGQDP

Structure (SMILES): CCCc1cc(C)[nH]c(=O)c1CNC(=O)c1cc(-c2ccc(N3CCN(C(C)C)CC3)nc2)cc2c1cnn2C(C)C
- inhibition [1]: -7%
- IC50 [2]: > 100000 nM
- inhibition [3]: 21%
- inhibition [4]: 2%
- inhibition [5]: -4%
- inhibition [6]: -6%
- inhibition [7]: 14%
- Activity (MCF7): inactive
- inhibition [8]: -3%
- inhibition [9]: -4%
- inhibition [10]: 93%
- inhibition [11]: 39%
- inhibition [12]: 0%
- inhibition [13]: 28%
- IC50 [14]: > 100000 nM
- inhibition [15]: -3%
- inhibition [16]: -1%
- IC50 [17]: > 100000 nM
- IC50 [18]: < 10 nM
- inhibition [19]: 44%
- inhibition [20]: 5%
- inhibition [21]: 2%
- IC50 [22]: 124 nM
- inhibition [23]: -2%
- IC50 [24]: > 100000 nM
- Ki [25]: 65 nM
- inhibition [26]: 50%
- inhibition [27]: 57%
